Where two headings read alike, the source gives them in different places.
Experiments:
[1] = molecular target: T1, Recombinant human factor B catalytic domain (Homo sapiens, UniProt P00751); assay: Target residence time of factor B inhibitors by surface plasmon resonance (SPR); settings: for t1/2: binding half-life, t1/2 = ln2/koff; for residence time: read-out: Residence time (s)
[2] = molecular target: T1, Recombinant human factor B catalytic domain; assay: TR-FRET factor B binding assay
[3] = Salt form screening (natural evaporation and reactive crystallisation); type: physicochemical; set-up: key to PLM/XRPD or slurry solvent: "√" indicates the presence of birefringence phenomenon; "×" indicates the absence of birefringence phenomenon; settings: for PLM/XRPD or slurry solvent: 1:1; for Characterization result: reactive crystallisation, Ethyl acetate, 1:1, stirred room temperature about 24 hours
Description: Salt form screening experiments were conducted via the solvent evaporation method. About 10 mg of the free base of Example 3 was weighed into a 2 mL glass vial and dissolved in 100 µL of an organic solvent. A solution of the counterion acid in methanol was added dropwise at a molar ratio of 1:1. The resulting clear solution was allowed to evaporate at room temperature. The obtained solid was first characterised by PLM. If no birefringence was observed, the solids were slurried by adding a solvent. If birefringence was observed, the solids were further characterised by XRPD. Compounds with high crystallinity were selected for characterization by DSC and TGA.
Approximately 10 mg of the free base compound of Example 3 was weighed into a 2 mL glass vial and dissolved in 100 µL of an organic solvent. 22 µL of a solution of the acid in ethyl acetate was slowly added dropwise at a molar ratio of 1 : 1 under stirring. The resulting clear solution was stirred at room temperature for approximately 24 hours. The resulting solid was dried in vacuo at 40°C and characterised by XRPD, DSC and TGA.

[4] = system: alternative complement pathway (AP); assay: Assessment of PD inhibition in rat plasma (ex vivo AP ELISA, MAC deposition on LPS, serum after oral dosing); set-up: species or system Sprague-Dawley rats; settings: over 24 hours; for inhibition at 2 mg/kg: Rattus norvegicus, rats, oral 2 mg/kg, AP deposition in 50% serum, read-out: Serum PD inhibition (%) over 24 hours (2 mpk)
Description: Male Sprague-Dawley rats (n = 3) were orally administered with vehicles (0.5% (w/v) methylcellulose, 0.5% (v/v) Tween 80), compound Iptacopan, or example compound formulations (in 0.5% (w/v) methylcellulose, 0.5% (v/v) Tween 80) at a dose of 2 mg/kg. Rat serum samples were collected at 0.25, 0.5, 1, 2, 4, 6, 8, and 24 hours post-dosing, and stored at -80°C. […] The coated plates were washed with GVB buffer (Complement technology) containing 5 mM MgCl2 and 10 mM EGTA (blocking both classical and lectin pathways). The collected serum samples were diluted by adding an equal volume of GVB buffer containing 10 mM MgCl2 and 20 mM EGTA. For negative controls, serum was diluted with GVB buffer containing 40 mM EDTA (blocking all complement pathways). Aliquots (50 ul) of 50% serum samples were added to the LPS-coated wells. The reaction plate was incubated at 37°C for 20 minutes (rat serum). […] Baseline (EDTA-treated serum) and maximum signal (EGTA-treated serum from vehicle-treated rats) were used to generate a percent inhibition value for each well.
Each data point in FIG. 37 represents the mean AP activity in rat serum. […] Table 5: Rat 24-hour PD study results

AP complement activation = assay: In vivo assessment of AP complement functional activity in mice (LPS-induced, plasma C3b/iC3b/C3c ELISA); set-up: species or system C57BL/6 mice; settings: LPS 2.5 mg/kg i.p. 7.5 hours before end, compound 20 mg/kg oral 20 hours before end
Description: 20 hours before the end of the study, female C57BL/6 mice were orally gavaged with the formulation of compound of Example 3 (20 mg/kg, 0.5% (w/v) methylcellulose, 0.5% (v/v) Tween 80). To activate the complement pathway, lipopolysaccharide (LPS) from Salmonella typhimurium (Sigma) was injected intraperitoneally (2.5 mg/kg) 7.5 hours before the end of the study. Control mice received intraperitoneal injections of normal saline and oral gavage administration of vehicles. At the end of the study, plasma samples were collected from the mice. AP complement activation was assessed by measuring plasma C3 cleavage products, C3b/iC3b/C3c, using an ELISA method with rat anti-mouse C3b/iC3b/C3c monoclonal antibodies (clone 2/11, Hycult Biotech, 0.1 µg/well), and a goat anti-rat IgG (whole molecule)-peroxidase (Sigma) diluted in TBST (TBS/0.05% Tween 20). Table 4: Plasma C3b/iC3b/C3c following treatment

[5] = Pharmacokinetic study in rat eyes; type: in vivo, brown Norway rats; settings: Brown Norway, 2 mg/kg, 2 mpk PO; for half-life: in vivo
Description: Three-month-old brown Norway rats were orally gavaged with the example compound as a suspension in 2 equivalents of 1 N HCl + 30% PEG300 + 50% (20% Cremophor EL aqueous solution). At 0.25, 0.5, 1, 6, and 24 hours post-dosing, ocular tissues and plasma were collected from both eyes of the rats at respective time points. The ocular tissues collected comprised retina and the posterior eyecup (RPE/choroid and posterior sclera). Tissues were diluted with phosphate-buffered saline containing 10% acetonitrile, followed by homogenization and centrifugation prior to analysis. At each time point, test article concentrations in plasma and eye homogenate supernatants were measured in four individual retinal samples, four individual posterior eyecup samples and two individual plasma samples by using HPLC-MS/MS. Chromatographic separation was performed on a Waters BEH C18 column (2.1 × 50 mm, 1.7 µm) (MAC-MOD Analytical, Chadds-Ford, PA) with a gradient elution method using water and acetonitrile, both containing 0.025% formic acid-1 M NH4OAc. Mass spectrometry measurements in positive electrospray ionization were performed to quantify mass transitions using [M+H]+ as the precursor ion on an API6500 triple quadrupole mass spectrograph (Sciex, Framingham, MA). The relevant pharmacokinetic parameters were estimated using the non-compartmental method in WinNonlin (Enterprise, version 8.2). Table 3: Rat PK study results (2 mpk PO)

[6] = plasma, read-out: Plasma AUC0-last
[7] = retina, read-out: Retina AUC0-last

T1 sequence (P00751 470-764): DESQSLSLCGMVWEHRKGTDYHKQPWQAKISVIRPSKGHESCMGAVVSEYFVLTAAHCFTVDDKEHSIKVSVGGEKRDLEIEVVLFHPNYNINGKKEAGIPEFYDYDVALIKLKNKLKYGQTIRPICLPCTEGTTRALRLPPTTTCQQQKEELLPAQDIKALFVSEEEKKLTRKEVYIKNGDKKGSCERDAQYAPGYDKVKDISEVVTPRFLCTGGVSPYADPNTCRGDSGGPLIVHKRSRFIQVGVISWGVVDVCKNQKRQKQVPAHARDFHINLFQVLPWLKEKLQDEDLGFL

With COc1cc(C)c2[nH]ccc2c1CN1CCC2(C[C@H]1c1ccc(C(=O)O)cc1C(F)F)CC(F)(F)C2 [Example 1] the Kd [1] was 0.77 nM, the “t1/2” value [1] was 0.8911 h and the residence time [1] was 4630 s. It also gave an IC50 [2] of under 2 nM.
With Cc1cc(C2CC2)c(CN2CCC3(C[C@H]2c2ccc(C(=O)O)cc2)CC(F)(F)C3)c2cc[nH]c12 [Example 2] the Kd [1] was 0.38 nM, the “t1/2” value [1] was 1.214 h and the residence time [1] was 6310 s. It also gave an IC50 [2] of under 2 nM.
In the case of COc1cc(C)c2[nH]ccc2c1CN1CCC2(C[C@H]1c1ccc(C(=O)O)cc1C)CC(F)(F)C2 [Example 3, (S)-4-(2,2-difluoro-7-((5-methoxy-7-methyl-1H-indol-4-yl)methyl)-7-azaspiro[3.5]nonan-6-yl)-3-methylbenzoic acid], the Kd [1] is reported as 0.17 nM, the “t1/2” value [1] is reported as 1.188 h and the residence time [1] is reported as 6170 s. The “Post-slurry PLM/XRPD” value ([3]; natural evaporation, Acetone, Hydrobromic acid (22 µL), slurried in ethyl acetate) was “√, crystal form A of hydrobromide”, the “Post-slurry PLM/XRPD” value ([3]; natural evaporation, Acetone, Hydrochloric acid (22 µL), slurried in ethyl acetate) was “√, high crystallinity, crystal form A of hydrochloride” and the “Post-slurry PLM/XRPD” value ([3]; natural evaporation, Acetone, Methanesulphonic acid (22 µL), slurried in ethyl acetate) was “√, crystal form A of methanesulfonat e”. The “Post-slurry PLM/XRPD” value ([3]; natural evaporation, Acetone, p-Toluenesulphonic acid (22 µL), slurried in ethyl acetate) was “√, crystal form A of p-toluenesulfonate”, the “Post-slurry PLM/XRPD” value ([3]; natural evaporation, Methanol, Hydrochloric acid (22 µL), slurried in 2-methyltetrahydrofuran) was “√, crystal form B of hydrochloride” and the “PLM/XRPD or slurry solvent” value ([3]; natural evaporation, solvent Acetone, Hydrobromic acid (22 µL)) was “×, ethyl acetate”. For the same compound, the “PLM/XRPD or slurry solvent” value ([3]; natural evaporation, solvent Acetone, Hydrochloric acid (22 µL)) was “×, ethyl acetate”, the “PLM/XRPD or slurry solvent” value ([3]; natural evaporation, solvent Acetone, Methanesulphonic acid (22 µL)) was “×, ethyl acetate” and the “PLM/XRPD or slurry solvent” value ([3]; natural evaporation, solvent Acetone, p-Toluenesulphonic acid (22 µL)) was “×, ethyl acetate”. For the same compound, the “PLM/XRPD or slurry solvent” value ([3]; natural evaporation, solvent Methanol, Adipic acid (22 µL)) was “√, crystal form A of adipate”, the “PLM/XRPD or slurry solvent” value ([3]; natural evaporation, solvent Methanol, Fumaric acid (88 µL)) was “√, crystal form A of fumarate” and the “PLM/XRPD or slurry solvent” value ([3]; natural evaporation, solvent Methanol, Hippuric acid (55 µL)) was “√, crystal form A of hippurate”. The “PLM/XRPD or slurry solvent” value ([3]; natural evaporation, solvent Methanol, Hydrobromic acid (22 µL)) was “√, high crystallinity”, the “PLM/XRPD or slurry solvent” value ([3]; natural evaporation, solvent Methanol, Hydrochloric acid (22 µL)) was “×, 2-methyltetrahydrofuran” and the “PLM/XRPD or slurry solvent” value ([3]; natural evaporation, solvent Methanol, Malonic acid (22 µL)) was “√, crystal form A of malonate”. For the same compound, the “PLM/XRPD or slurry solvent” value ([3]; natural evaporation, solvent Methanol, Oxalic acid (22 µL)) was “√, crystal form A of oxalate”, the “PLM/XRPD or slurry solvent” value ([3]; natural evaporation, solvent Methanol, Succinic acid (22 µL)) was “√, crystal form A of succinate” and the Characterization result ([3]; Hydrobromic acid) was “Crystal form A of hydrobromide”. The Characterization result ([3]; Hydrochloric acid) was “Crystal form A of hydrochloride”, the Characterization result ([3]; Methanesulphonic acid) was “Crystal form A of methanesulfonate” and the “PLM/XRPD or slurry solvent” value ([3]; solvent Ethyl acetate, Hydrobromic acid (22 µL), Clear → Suspension (slurried)) was “√, crystal form A of hydrobromide”. The “PLM/XRPD or slurry solvent” value ([3]; solvent Toluene, Hydrobromic acid (22 µL), Clear → Suspension (slurried)) was “√, crystal form A of hydrobromide”, the “inhibitory effects in the ex vivo PD assay in rats” value ([4]; 2 mg/kg oral, 50% serum) was “sustained inhibitory effects” and the inhibition at 2 mg/kg [4] was 57.5%. For the same compound, the “Plasma C3b/iC3b/C3c (1 x 10^6)” value (AP complement activation) was 210.25 ^ns 1 x 10^6, the AUC(0-t) [5, 6] was 12.7 µM·h and the AUC(0-t) [5, 7] was 0.796 µM·h. It also gave a half-life [5] of 22.2 h and an IC50 [2] of under 2 nM.
In the case of CCO[C@H]1CCN(Cc2c(OC)cc(C)c3[nH]ccc23)[C@H](c2ccc(C(=O)O)cc2)C1 [Iptacopan, reference compound], the inhibition at 2 mg/kg [4] is reported as -3%, the AUC(0-t) [5, 6] is reported as 13.5 µM·h and the AUC(0-t) [5, 7] is reported as 0.141 µM·h. For the same compound, the half-life [5] was 5.3 h.

Source: patent EP4703356A1, “SALT OF PIPERIDYLINDOLE COMPOUND AND PREPARATION METHOD THEREFOR” (Shanghai Hansoh Biomedical Co., Ltd., priority 2023, dated 2024)
